# Data as given in patent publication US20240190880A1 (THE REGENTS OF THE UNIVERSITY OF MICHIGAN, priority 2021, published 2024).
# Biological target: T1, ER (Homo sapiens, UniProt P03372)
# T1 construct: host or cells: T47D and MCF7 human breast cancer cells
# T1 sequence (P03372 1-595): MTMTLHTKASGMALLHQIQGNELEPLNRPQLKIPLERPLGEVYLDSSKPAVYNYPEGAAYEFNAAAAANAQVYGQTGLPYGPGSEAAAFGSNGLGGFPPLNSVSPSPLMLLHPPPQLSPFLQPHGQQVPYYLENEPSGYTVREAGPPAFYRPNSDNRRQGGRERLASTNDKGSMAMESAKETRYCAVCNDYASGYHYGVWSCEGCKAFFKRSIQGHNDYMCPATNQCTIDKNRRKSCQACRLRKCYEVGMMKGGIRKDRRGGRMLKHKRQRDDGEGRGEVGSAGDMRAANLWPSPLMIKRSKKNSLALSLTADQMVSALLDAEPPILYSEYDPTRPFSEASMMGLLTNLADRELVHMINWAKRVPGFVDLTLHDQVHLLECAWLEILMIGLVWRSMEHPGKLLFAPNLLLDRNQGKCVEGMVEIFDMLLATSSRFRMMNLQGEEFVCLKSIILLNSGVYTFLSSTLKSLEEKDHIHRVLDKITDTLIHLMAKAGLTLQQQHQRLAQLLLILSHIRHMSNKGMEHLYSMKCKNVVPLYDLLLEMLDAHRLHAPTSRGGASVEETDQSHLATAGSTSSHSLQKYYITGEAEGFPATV
# Assay: ER degradation activity, in-cell western blot analysis in T47D cells
# Type: cell-based
# Details: 16 hours, Table A does not say which cell line (T47D or MCF7), read-out: Potency (DC50)
# Method in brief: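 T47D cells grown in DMEM with 10% FBS were treated with compounds for 16 hours at 0.5% DMSO final. ER was detected by in-cell western using 680/800 near-infrared secondary antibodies. Residual ER is given as percent of untreated and DMSO-treated wells set to 100%.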
row,SMILES,DC50 [nM]
1,"O=C1CCC(N2C(=O)c3cc4c(cc3C2=O)CN(C2CCC(CN3CCN(c5ccc([C@@H]6c7ccc(O)cc7CC[C@@H]6c6ccccc6)cc5)CC3)CC2)C4)C(=O)N1 (stereo partly drawn) [E 290, 2-(2,6-dioxopiperidin-3-yl)-6-(4-((4-(4-((1R,2S)-6-hydroxy-2-phenyl-1,2,3,4-tetrahydronaphthalen-1-yl)phenyl)piperazin-1-yl)methyl)cyclohexyl)-6,7-dihydropyrrolo[3,4-f]isoindole-1,3(2H,5H)-dione]",10 to 100
2,"C[C@@H]1CC2(CCN(c3ccc([C@@H]4c5ccc(O)cc5CC[C@@H]4c4ccc(F)cc4)cc3)CC2)CN1C(=O)CN1Cc2cc3c(cc2C1)C(=O)N(C1CCC(=O)NC1=O)C3=O (mixture of isomers) [E 145, Rac-2-(2,6-dioxopiperidin-3-yl)-6-(2-((R)-8-(4-((1R,2S)-2-(4-fluorophenyl)-6-hydroxy-1,2,3,4-tetrahydronaphthalen-1-yl)phenyl)-3-methyl-2,8-diazaspiro[4.5]decan-2-yl)-2-oxoethyl)-6,7-dihydropyrrolo[3,4-f]isoindole-1,3(2H,5H)-dione]",10 to 100
3,"O=C1CCC(N2C(=O)c3cc4c(cc3C2=O)CN(C(=O)[C@H]2CC[C@@H](N3CC(Oc5ccc([C@H]6c7ccc(O)cc7CC[C@H]6c6ccccc6)cc5)C3)CC2)C4)C(=O)N1 (stereo partly drawn) [E 389, 2-(2,6-dioxopiperidin-3-yl)-6-((1R,4s)-4-(3-(4-((1S,2R)-6-hydroxy-2-phenyl-1,2,3,4-tetrahydronaphthalen-1-yl)phenoxy)azetidin-1-yl)cyclohexane-1-carbonyl)-6,7-dihydropyrrolo[3,4-f]isoindole-1,3(2H,5H)-dione]",> 100
4,"O=C1CCC(N2Cc3cc4c(cc3C2=O)CN(C2CCN(CC3CN(c5ccc([C@@H]6c7ccc(O)cc7CC[C@@H]6c6ccccc6)cc5)C3)CC2)C4)C(=O)N1 (stereo partly drawn) [E 294, 3-(6-(1-((1-(4-((1R,2S)-6-hydroxy-2-phenyl-1,2,3,4-tetrahydronaphthalen-1-yl)phenyl)azetidin-3-yl)methyl)piperidin-4-yl)-1-oxo-3,5,6,7-tetrahydropyrrolo[3,4-f]isoindol-2(1H)-yl)piperidine-2,6-dione]",> 100
5,"C[C@@H]1Cc2cc(O)ccc2[C@@H](c2c(F)cc(N3CC4(CCN(C(=O)CN5Cc6cc7c(cc6C5)C(=O)N(C5CCC(=O)NC5=O)C7)CC4)C3)cc2F)N1CC(C)(F)F (stereo partly drawn) [E 27, 3-(6-(2-(2-(4-((1S,3R)-2-(2,2-difluoropropyl)-6-hydroxy-3-methyl-1,2,3,4-tetrahydroisoquinolin-1-yl)-3,5-difluorophenyl)-2,7-diazaspiro[3.5]nonan-7-yl)-2-oxoethyl)-1-oxo-3,5,6,7-tetrahydropyrrolo[3,4-f]isoindol-2(1H)-yl)piperidine-2,6-dione]",> 100
6,"CCC(=C(c1ccc(O)cc1)c1ccc(N2CCC3(CC2)CN(C(=O)CN2Cc4cc5c(cc4C2)C(=O)N(C2CCC(=O)NC2=O)C5=O)C3)cc1)c1ccccc1 (stereo not shown) [E 242, 2-(2,6-dioxopiperidin-3-yl)-6-(2-(7-(4-(1-(4-hydroxyphenyl)-2-phenylbut-1-en-1-yl)phenyl)-2,7-diazaspiro[3.5]nonan-2-yl)-2-oxoethyl)-6,7-dihydropyrrolo[3,4-f]isoindole-1,3(2H,5H)-dione]",10 to 100
7,"O=C1CCC(N2Cc3cc4c(cc3C2=O)CN(C(=O)C2CCN(CC3CN(c5ccc([C@@H]6c7ccc(O)cc7CC[C@@H]6c6ccccc6)cc5)C3)CC2)C4)C(=O)N1 (stereo partly drawn) [E 296, 3-(6-(1-((1-(4-((1R,2S)-6-hydroxy-2-phenyl-1,2,3,4-tetrahydronaphthalen-1-yl)phenyl)azetidin-3-yl)methyl)piperidine-4-carbonyl)-1-oxo-3,5,6,7-tetrahydropyrrolo[3,4-f]isoindol-2(1H)-yl)piperidine-2,6-dione]",> 100
8,"O=C1CCC(N2C(=O)c3cc4c(cc3C2=O)CN(CC(=O)N2CCC3(CCC(Oc5ccc([C@@H]6c7ccc(O)cc7CC[C@@H]6c6ccccc6)cc5)CC3)CC2)C4)C(=O)N1 (stereo partly drawn) [E 224, 2-(2,6-dioxopiperidin-3-yl)-6-(2-(9-(4-((1R,2S)-6-hydroxy-2-phenyl-1,2,3,4-tetrahydronaphthalen-1-yl)phenoxy)-3-azaspiro[5.5]undecan-3-yl)-2-oxoethyl)-6,7-dihydropyrrolo[3,4-f]isoindole-1,3(2H,5H)-dione]",> 100
9,"C[C@@H]1Cc2c([nH]c3ccccc23)[C@@H](c2c(F)cc(N3CCC(N4CCN(CC(=O)N5Cc6cc7c(cc6C5)C(=O)N(C5CCC(=O)NC5=O)C7)CC4)CC3)cc2F)N1CC(F)F (stereo partly drawn) [E 96, 3-(6-(2-(4-(1-(4-((1R,3R)-2-(2,2-difluoroethyl)-3-methyl-2,3,4,9-tetrahydro-1H-pyrido[3,4-b]indol-1-yl)-3,5-difluorophenyl)piperidin-4-yl)piperazin-1-yl)acetyl)-1-oxo-3,5,6,7-tetrahydropyrrolo[3,4-f]isoindol-2(1H)-yl)piperidine-2,6-dione]",< 10

# Second part, the compound after the results:
row,DC50 [nM],SMILES
1,> 100,"C[C@@H]1Cc2c([nH]c3ccccc23)[C@@H](c2c(F)cc(N3CCC(C(=O)N4CC(N5Cc6cc7c(cc6C5)C(=O)N(C5CCC(=O)NC5=O)C7=O)C4)CC3)cc2F)N1CC(F)F (stereo partly drawn) [E 235, 6-(1-(1-(4-((1R,3R)-2-(2,2-difluoroethyl)-3-methyl-2,3,4,9-tetrahydro-1H-pyrido[3,4-b]indol-1-yl)-3,5-difluorophenyl)piperidine-4-carbonyl)azetidin-3-yl)-2-(2,6-dioxopiperidin-3-yl)-6,7-dihydropyrrolo[3,4-f]isoindole-1,3(2H,5H)-dione]"
2,< 10,"C[C@@H]1Cc2c([nH]c3ccccc23)[C@@H](c2c(F)cc(N3CC4(CN(CC(=O)N5Cc6cc7c(cc6C5)C(=O)N(C5CCC(=O)NC5=O)C7)C4)C3)cc2F)N1CC(F)F (stereo partly drawn) [E 65, 3-(6-(2-(6-(4-((1R,3R)-2-(2,2-difluoroethyl)-3-methyl-2,3,4,9-tetrahydro-1H-pyrido[3,4-b]indol-1-yl)-3,5-difluorophenyl)-2,6-diazaspiro[3.3]heptan-2-yl)acetyl)-1-oxo-3,5,6,7-tetrahydropyrrolo[3,4-f]isoindol-2(1H)-yl)piperidine-2,6-dione]"

# Same assay, conditions: compounds 16 hours, Table A does not say whether T47D or MCF7, read-out: Potency (DC50)
row,DC50 [nM],SMILES
1,> 100,"O=C1CCC(N2C(=O)c3cc4c(cc3C2=O)CN(CC(=O)N2CCC3(CC2)CCN(c2ccc([C@H]5c6ccc7[nH]ncc7c6CC[C@H]5c5ccccc5)cc2)CC3)C4)C(=O)N1 (stereo partly drawn) [E 422, 2-(2,6-dioxopiperidin-3-yl)-6-(2-oxo-2-(9-(4-((6S,7R)-7-phenyl-6,7,8,9-tetrahydro-3H-benzo[e]indazol-6-yl)phenyl)-3,9-diazaspiro[5.5]undecan-3-yl)ethyl)-6,7-dihydropyrrolo[3,4-f]isoindole-1,3(2H,5H)-dione]"
2,> 100,"C[C@@H]1Cc2c([nH]c3ccccc23)[C@@H](c2ccc(C3=CCC(C(=O)N4CCC(N5Cc6cc7c(cc6C5)C(=O)N(C5CCC(=O)NC5=O)C7=O)CC4)CC3)cc2F)N1CC1(F)CC1 (stereo partly drawn) [E 486, 2-(2,6-dioxopiperidin-3-yl)-6-(1-(3′-fluoro-4′-((1R,3R)-2-((1-fluorocyclopropyl)methyl)-3-methyl-2,3,4,9-tetrahydro-1H-pyrido[3,4-b]indol-1-yl)-2,3,4,5-tetrahydro-[1,1′-biphenyl]-4-carbonyl)piperidin-4-yl)-6,7-dihydropyrrolo[3,4-f]isoindole-1,3(2H,5H)-dione]"
3,10 to 100,"C[C@@H]1Cc2cc(O)ccc2[C@H](c2ccc(C(=O)N3CC4(CCN(C(=O)CN5Cc6cc7c(cc6C5)C(=O)N(C5CCC(=O)NC5=O)C7=O)CC4)C3)cc2)N1CC(F)F (stereo partly drawn) [E 460, 6-(2-(2-(4-((1S,3R)-2-(2,2-difluoroethyl)-6-hydroxy-3-methyl-1,2,3,4-tetrahydroisoquinolin-1-yl)benzoyl)-2,7-diazaspiro[3.5]nonan-7-yl)-2-oxoethyl)-2-(2,6-dioxopiperidin-3-yl)-6,7-dihydropyrrolo[3,4-f]isoindole-1,3(2H,5H)-dione]"
4,> 100,"C[C@@H]1Cc2c([nH]c3ccccc23)[C@@H](c2ccc(C3=CCC4(CC3)CCN(C(=O)CN3Cc5cc6c(cc5C3)C(=O)N(C3CCC(=O)NC3=O)C6=O)CC4)cc2)N1CC(F)F (stereo partly drawn) [E 478, 6-(2-(9-(4-((1R,3R)-2-(2,2-difluoroethyl)-3-methyl-2,3,4,9-tetrahydro-1H-pyrido[3,4-b]indol-1-yl)phenyl)-3-azaspiro[5.5]undec-8-en-3-yl)-2-oxoethyl)-2-(2,6-dioxopiperidin-3-yl)-6,7-dihydropyrrolo[3,4-f]isoindole-1,3(2H,5H)-dione]"
5,< 10,"C[C@@H]1Cc2c(ccc3[nH]ncc23)[C@@H](c2ccc(N3CCC4(CCN(C(=O)CN5Cc6cc7c(cc6C5)C(=O)N(C5CCC(=O)NC5=O)C7=O)CC4)CC3)cn2)N1CC(F)(F)F (stereo partly drawn) [E 413, 2-(2,6-dioxopiperidin-3-yl)-6-(2-(9-(6-((6S,8R)-8-methyl-7-(2,2,2-trifluoroethyl)-6,7,8,9-tetrahydro-3H-pyrazolo[4,3-f]isoquinolin-6-yl)pyridin-3-yl)-3,9-diazaspiro[5.5]undecan-3-yl)-2-oxoethyl)-6,7-dihydropyrrolo[3,4-f]isoindole-1,3(2H,5H)-dione]"
